Source: PubChem BioAssay (NCI)
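Interpolation was linear, between the two tested concentrations surrounding the appropriate level; five concentrations were tested over 48 hours in 96-well plates. The concentration for full growth arrest is given as TGI.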

What was measured:
Assay in all cases: NCI anticancer screen, dose series, 48 h
MDA-N = tested on: MDA-N
KM12 colon = tested on: KM12 colon
HCT-116 colon = tested on: HCT-116 colon
MDA-MB-435 = tested on: MDA-MB-435
EKVX NSCLC = tested on: EKVX NSCLC
HL-60(TB) leukemia = tested on: HL-60(TB) leukemia
HCT-15 colon = tested on: HCT-15 colon
786-0 renal = tested on: 786-0 renal
MALME-3M melanoma = tested on: MALME-3M melanoma
HS 578T breast = tested on: HS 578T breast
A498 renal = tested on: A498 renal

| SMILES | TGI (MDA-N) [µM] | TGI (KM12 colon) [µM] | TGI (HCT-116 colon) [µM] | TGI (MDA-MB-435) [µM] | TGI (EKVX NSCLC) [µM] | TGI (HL-60(TB) leukemia) [µM] | TGI (HCT-15 colon) [µM] | TGI (786-0 renal) [µM] | TGI (MALME-3M melanoma) [µM] | TGI (HS 578T breast) [µM] | TGI (A498 renal) [µM] |
| --- | --- | --- | --- | --- | --- | --- | --- | --- | --- | --- | --- |
| CCC1([N+](=O)[O-])CN(N=O)C1 | > 100 | > 100 | > 100 | > 100 | > 100 | > 100 | > 100 | > 100 | > 100 | > 100 | > 100 |
| O=C(c1ccco1)N(C(=O)N1CCC(c2ccccc2)CC1)c1ccccc1 | > 100 | 85 | > 100 | > 100 | > 100 | 65.9 | > 100 | > 100 | > 100 | > 100 | > 100 |
| Clc1ccc(/C(=C/c2ccccc2)Cn2ccnc2)cc1 | 46.6 | > 100 | > 100 | 67.7 | > 100 | 46.3 | > 100 | > 100 | > 100 | > 100 | 77.7 |
| CCC1(CC)C(=O)N(C(=O)c2cc(OC)c(OC)c(OC)c2)N(C(=O)c2cc(OC)c(OC)c(OC)c2)C1=O | > 50 | > 50 | > 50 | > 50 | > 50 | > 50 | > 50 | > 50 | > 50 | > 50 | > 50 |
| NC(=O)NN=C1Cc2ccccc2C1 | > 100 | > 100 | > 100 | > 100 | > 100 | > 100 | > 100 | > 100 | > 100 | > 100 | > 100 |
| CC1(C)N=C(N)N=C(N)N1c1cccc(Cl)c1 | > 100 | > 100 | > 100 | > 100 | > 100 | > 100 | > 100 | > 100 | > 100 | > 100 | > 100 |
| N#C/C(C(=O)NCc1ccccc1)=C(/N)N1CCCC1 | > 100 | > 100 | > 100 | > 100 | > 100 | > 100 | > 100 | > 100 | > 100 | > 100 | > 100 |
| CS(=O)(=O)Nc1ccc2ccccc2c1 | > 100 | > 100 | > 100 | > 100 | > 100 | > 100 | > 100 | > 100 | > 100 | > 100 | > 100 |
| O=C(NC(C(F)(F)F)(C(F)(F)F)P(=O)(Cc1ccccc1)Cc1ccccc1)C(C(F)(F)F)C(F)(F)F | 43.6 | 37.7 | 33.1 | 34.3 | 58.9 | 71.3 | > 100 | 34.4 | 47.1 | > 100 | 32.3 |
